Literature values, collected in patent US11192954B2, “Compounds and methods for the treatment of TROP2 positive diseases” (BIO-THERA SOLUTIONS, LTD., priority 2017, dated 2021).

Key:
[1] = test system: multiple cancer cell lines; details: cited from earlier work
[2] = test system: Lewis lung carcinoma and B-16 melanocarcinoma solid murine tumor models; details: mouse, in vivo; cited from earlier work

SMILES | Activity against multiple cancer cell lines [1] | Activity against murine tumors [2]
COc1cc2cc(c1Cl)N(C)C(=O)C[C@H](OC(=O)C(C)C)[C@]1(C)O[C@@H]1[C@H](C)[C@@H]1C[C@@](O)(NC(=O)O1)[C@H](OC)/C=C/C=C(\C)C2 [Ansamitocin P3] | effective | 
COc1cc2cc(c1Cl)N(C)C(=O)C[C@H](OC(=O)[C@H](C)N(C)C(C)=O)[C@]1(C)O[C@H]1[C@H](C)[C@@H]1C[C@@](O)(NC(=O)O1)[C@H](OC)/C=C/C=C(\C)C2 [Maytansine] |  | significant inhibitory activity
